Results on 3 compounds are retold here after EP2605769B1, “BENZOQUINONE DERIVATIVES FOR THE TREATMENT OF MITCHONDRIAL EYE DISEASES” (Santhera Pharmaceuticals (Schweiz) AG, priority 2010, dated 2012).

Experiment [1] has as its system Complex II-III. The experiment in a line: Measurement of mitochondrial complex II activity (SURFE2R CII-CIII assay). Type of experiment: biochemical. The note with it: test compound ~4 µM, peak current normalized. The source says:
Complex II (CII) is an enzyme complex bound to the matrix face of the inner mitochondrial membranes. It consists of four subunits with several different enzymatic activities. One of these is the citric acid-cycle enzyme succinate dehydrogenase, which catalyzes the conversion from succinate to fumarate. In this reaction electrons are transferred from succinate to the prosthetic group FAD thus generating FADH2 ([…] 2000). These electrons are then transferred from the reduced FADH2 to ubiquinone, from ubiquinone to the reaction centers of complex III (CIII), and finally to the cytochrome c. During this electron translocation process, complex III pumps four protons from matrix to the intermembrane space. These proton fluxes can be detected as electrical currents on SSM-based SURFE2R sensors (http://www.sd-heidelberg.de/index.html). In the SURFE2R CII-CIII assay, both, CII and CIII are activated simultaneously by first equilibrating the sensors with succinate and then activating the CII-CIII reaction by oxidized cytochrome c. The resulting efflux of protons out from the membrane compartment induces negative currents, which are sensitive to the CII and CIII inhibitors malonate and antimycin A, respectively. Experimental Procedure: SURFE2R SSM sensors were coated with inner mitochondrial membranes according to the standard protocols. Briefly, sensors were filled with 50 μL of SensorPrep A solution and incubated for 10-15 min. […] The biosensors were thawed immediately before the experiment and measured with the SURFE2R Workstation 50 or 500 devices. […] For the activity of CII-III, the peak current (current amplitude) was evaluated. […] Afterwards, a test compound (~4 μM) was supplied to the non-activating and the activating solutions and the CII-III activity was recorded for further ~50 min (110 min in total). […] For those test compounds, which activated CII-III by more than 30% at time 80 to 110 min, the CII-CIII activity was recorded for additional ~50 min (up to 160 min in total).

For experiment [2], the system named is Primary human fibroblasts C4 (GM04545, Coriell). The experiment in a line: Lipid peroxidation assay (BODIPY 581/591-C11). Format: cell-based. The note with it: 10 µM test compound, 72 hours. The source says: Lipid peroxidation is a well defined mechanism of cellular damage in both animals and plants that occurs during aging and in some disease states. This process proceeds by a free radical chain reaction mechanism. […] If not terminated fast enough, lipid peroxidation damages cellular membranes, affect membrane fluidity and also mitochondrial function. In addition, end products of lipid peroxidation may be mutagenic and carcinogenic. For instance, the reactive end product of lipid peroxidation, malondialdehyde, directly causes DNA damage. Experimental Procedure: […] BODIPY 581/591-C11 can be used to measure antioxidant activity in lipid environments by exploiting its loss of fluorescence upon interaction with peroxyl radicals. […] After that, 0.1 ml freshly prepared dye solution (HBSS, containing BODIPY dye 1:1000 from stock solution) was added and cells were returned to the incubator for 30 min. After 2 brief washes with 0.1 ml warmed PBS fluorescence was measured in 50 µl PBS. Fluorescence for 4 individual areas per well were individually quantified at two wavelengths (Ex1: 490, Em1: 600; Ex2: 490, Em2: 530, bandwith 10nm, 50 flashes, 400Hz frequency, 20 µs integration time).

As to `COC1=C(OC)C(=O)C(CCCCCCCCCC(C)(C)O)=C(C)C1=O` [Compound IC], the “Complex II-III activity” value in experiment [1] was found to be 97%. In experiment [2], this compound gave a Lipid peroxidation of 92%.
`COC1=C(OC)C(=O)C(CCCCCCCCCCO)=C(C)C1=O` [Compound IA, Idebenone]: in experiment [1], the “Complex II-III activity” value is 102%. In experiment [2], the Lipid peroxidation is listed as 98%.
In the same order, the values of `CCCCCCCCCCCC1=C(O)C(=O)C=C(O)C1=O` [Compound IE, Embelin] are 110% and 110%.
